In PMC12040169 (PLOS Biology, 2025) one finds viability data, which are given here for 71 molecules.

A word on the viability: it is a read-out of living cells in per cent, often relative to untreated cells.

Molecules are shown by their SMILES.

This data set in a line: in vitro. The note with it: human, hela cells, % viability.
Turning to `CN1CCCCC[C@@H]2[C@@H]1[C@H](c1ccccc1)CN2C(=O)CN1CCCCCC1=O` [CBK285524], the viability at 28.5 h, 10 µM stood at 87.5%.

Consider `CC(C)NC(=O)[C@H]1CN(C(=O)c2cc[nH]n2)C[C@@H]1c1ccnc(N2CCCC2)n1` [CBK285526], for which the viability at 28.5 h, 10 µM came to 89.3%.

Regarding `O=C1NCCCC12CCN(Cc1cnc(N3CCOCC3)nc1)CC2` [CBK285528], the viability at 28.5 h, 10 µM is 111%.

As to `Cc1cccc([C@H]2CN(C(=O)C3CCCC3)[C@@H]3CCN(C4CCCC4)C[C@H]23)c1` [CBK285529], the viability at 28.5 h, 10 µM came to 118%.

Take `Cc1cccc(CN2CCCC[C@H]3CN(C(=O)c4cccs4)C[C@H]32)c1` [CBK285530]: the viability at 28.5 h, 10 µM was 85.8%.

As to `COc1ccc(OC)c(C(O)CN2CCc3sccc3C2c2cccs2)c1` (centres unmarked) [CBK285532], the viability at 28.5 h, 10 µM is 109%.

On to `O=C(NCc1cccs1)C1(Cc2ccc(-c3ccc(F)c(F)c3)cc2)CCOCC1` [CBK285533], for which the viability at 28.5 h, 10 µM came out at 99.5%.

For `O=C(NCC1CCCO1)C1(Cc2ccc(-c3ccc(F)c(F)c3)cc2)CCOCC1` (centres unmarked) [CBK285534], the viability at 28.5 h, 10 µM is 97.2%.

In the case of `CC(C)NC(=O)c1sc2ccccc2c1C1CN(Cc2c[nH]nc2C(C)(C)C)CCO1` (centres unmarked) [CBK285535], the viability at 28.5 h, 10 µM is 93.5%.

With `COc1ccc(F)cc1-c1ccc(CC2(C(=O)NC3CCCCC3)CCOCC2)cc1` [CBK285538], the viability at 28.5 h, 10 µM was found to be 86.6%.

With `COc1ccc(F)cc1-c1cccc(CC2(C(=O)NCc3cccs3)CCOCC2)c1` [CBK285543], the viability at 28.5 h, 10 µM worked out at 90.6%.

`Cc1oc(C(=O)Nc2cccc(CCc3ccncc3)c2)cc1CN1CCOCC1` [CBK285547]: the viability at 28.5 h, 10 µM turned out to be 92.8%.

As for `CC(Oc1ccc2c(c1)OCO2)C(=O)N1CCc2sccc2C1c1ccccc1` (centres unmarked) [CBK285549], the viability at 28.5 h, 10 µM was determined as 91.9%.

Consider `O=C(c1cccc(Cn2cccn2)c1)N1CCc2sccc2C1c1ccccc1` (centres unmarked) [CBK285552], for which the viability at 28.5 h, 10 µM is 85.8%.

For the molecule `O=C(NCCc1ccc(Cl)cc1)C1CCN(C(=O)c2ccc3nsnc3c2)C1` (centres unmarked) [CBK285553], the viability at 28.5 h, 10 µM came out at 95.2%.

On to `Cc1ccc(C(=O)Nc2cccc(CCc3ccncc3)c2)c(=O)n1C` [CBK285556], for which the viability at 28.5 h, 10 µM is 84.4%.

Take `Cc1cnc2c(C(=O)Nc3cccc(CCc4ccncc4)c3)cnn2c1` [CBK285558]: the viability at 28.5 h, 10 µM turned out to be 106%.

In the case of `COc1ccc(NC(=O)c2cn(C)nc2CC2CCN(CCc3ccccc3)CC2)cc1` [CBK285559], the viability at 28.5 h, 10 µM came to 90.9%.

Regarding `O=C(CC1NC(=O)N(C2CCCCC2)C1=O)Nc1cccc(CCc2ccncc2)c1` (centres unmarked) [CBK285563], the viability at 28.5 h, 10 µM is 93.1%.

In the case of `O=C(NCC1CCCCC1)C1(Cc2ccc(-c3ccncc3)cc2)CCOCC1` [CBK285564], the viability at 28.5 h, 10 µM stood at 121%.

As for `O=C(Nc1ccc(-c2cccc(F)c2)cc1)c1ccccc1Cn1cncn1` [CBK285565], the viability at 28.5 h, 10 µM came out at 95.6%.

In the case of `Cc1nnnn1-c1ccc(CC(=O)N2CCc3sccc3C2c2ccccc2)cc1` (centres unmarked) [CBK285567], the viability at 28.5 h, 10 µM worked out at 103%.

For the molecule `Nc1ncc(-c2ccc(Cl)cc2)c(C2CCCN(C(=O)C3CCCC3)C2)n1` (centres unmarked) [CBK285571], the viability at 28.5 h, 10 µM worked out at 95.1%.

Regarding `Nc1ncc(-c2ccc(Cl)cc2)c(C2CCCN(C(=O)Cc3c[nH]c4ccccc34)C2)n1` (centres unmarked) [CBK285574], the viability at 28.5 h, 10 µM amounted to 113%.

For `CC(=O)N1CCCCC[C@@H]2[C@@H]1C[C@@H](Cc1ccccc1)N2C(=O)c1ccccc1` [CBK285576], the viability at 28.5 h, 10 µM was determined as 115%.

Take `COc1ccc([C@@H]2CN(C(=O)c3ccccc3)[C@H]3CCN(Cc4ccc(F)cc4)C[C@@H]23)cc1` [CBK285581]: the viability at 28.5 h, 10 µM worked out at 109%.

Take `COc1ccc([C@H]2CN(C(=O)c3ccccc3)[C@@H]3CCN(Cc4cccs4)C[C@H]23)cc1` [CBK285582]: the viability at 28.5 h, 10 µM is 103%.

Regarding `COc1ccc([C@H]2CN(C(=O)c3ccccc3)[C@@H]3CCN(Cc4ccccc4C)C[C@H]23)cc1` [CBK285583], the viability at 28.5 h, 10 µM was 105%.

Consider `COc1ccc([C@H]2CN(C(=O)c3ccccc3)[C@@H]3CCN(Cc4ccsc4)C[C@H]23)cc1` [CBK285585], for which the viability at 28.5 h, 10 µM was found to be 103%.

Take `O=C(Nc1ccccc1Oc1ccc(F)cc1)c1ccc(Cn2cncn2)cc1` [CBK285587]: the viability at 28.5 h, 10 µM worked out at 118%.

As to `O=C(NCCc1ccc(Cl)cc1)C1(Cc2ccc(-c3cccnc3)cc2)CCOCC1` [CBK285589], the viability at 28.5 h, 10 µM was 94.6%.

On to `O=C(NCCc1ccccc1Cl)C1(Cc2ccc(-c3cccnc3)cc2)CCOCC1` [CBK285590], for which the viability at 28.5 h, 10 µM worked out at 95.5%.

Consider `COc1ccc([C@H]2CN(C(=O)c3ccccc3)[C@@H]3CCN(Cc4ccccc4)C[C@H]23)cc1` [CBK285592], for which the viability at 28.5 h, 10 µM stood at 98.5%.

Consider `COc1ccccc1-c1cccc(CC2(C(=O)NCCc3ccccc3)CCOCC2)c1` [CBK285593], for which the viability at 28.5 h, 10 µM amounted to 93.6%.

`NC(=O)C1(Cc2ccccc2-c2ccccc2)CCN(C(=O)CCc2ccccc2)CC1` [CBK285595]: the viability at 28.5 h, 10 µM came to 107%.

In the case of `CN(C(=O)c1c[nH]nc1-c1ccc(CNC(=O)Cc2ccc(F)cc2)cc1)c1ccccc1` [CBK285599], the viability at 28.5 h, 10 µM stood at 95.9%.

For the molecule `Cc1ccc(C(=O)NCc2ccc(-c3n[nH]cc3C(=O)N(C)c3ccccc3)cc2)cc1` [CBK285600], the viability at 28.5 h, 10 µM was 98.7%.

Turning to `O=C(c1ccccc1)N1C[C@@H](c2ccsc2)[C@@H]2CN(Cc3ccccc3)CC[C@@H]21` [CBK285602], the viability at 28.5 h, 10 µM came to 104%.

Take `O=C(c1ccccc1)N1C[C@@H](c2ccsc2)[C@@H]2CN(Cc3cccc(Cl)c3)CC[C@@H]21` [CBK285603]: the viability at 28.5 h, 10 µM was 108%.

Take `O=C(c1ccccc1)N1C[C@H](c2ccsc2)[C@H]2CN(Cc3ccsc3)CC[C@H]21` [CBK285604]: the viability at 28.5 h, 10 µM was 118%.

With `COc1cccc(C(NC(=O)Cc2ccc(-n3nnnc3C)cc2)c2ccccc2)c1` (centres unmarked) [CBK285605], the viability at 28.5 h, 10 µM turned out to be 93.4%.

Consider `O=C(NCCc1ccc(Cl)cc1)C1(Cc2cccc(-c3cccnc3)c2)CCOCC1` [CBK285606], for which the viability at 28.5 h, 10 µM came out at 96.7%.

For `COc1cccc([C@H]2CN(C(=O)c3ccccc3)[C@@H]3CCN(Cc4ccccc4C)C[C@H]23)c1` [CBK285610], the viability at 28.5 h, 10 µM was determined as 98.6%.

Turning to `O=C(c1ccccc1)N1C[C@@H](c2ccsc2)[C@@H]2CN(Cc3ccc(Cl)cc3)CC[C@@H]21` [CBK285615], the viability at 28.5 h, 10 µM was found to be 100%.

Regarding `COc1cccc(CN2CC[C@H]3[C@@H](C2)[C@H](c2ccsc2)CN3C(=O)c2ccccc2)c1` [CBK285616], the viability at 28.5 h, 10 µM worked out at 97.5%.

On to `Cc1ccccc1CN1CC[C@H]2[C@@H](C1)[C@H](c1ccsc1)CN2C(=O)c1ccccc1` [CBK285618], for which the viability at 28.5 h, 10 µM was 100%.

Consider `Cc1cccc(CN2CC[C@H]3[C@@H](C2)[C@H](c2ccsc2)CN3C(=O)c2ccccc2)c1` [CBK285619], for which the viability at 28.5 h, 10 µM came to 106%.

Turning to `Cc1ccccc1Cc1cccc(C2CCN(C(=O)Cc3ccccc3)CC2)n1` [CBK285625], the viability at 28.5 h, 10 µM is 94.7%.

For `COc1ccc(CN2CCC(c3ncc(C(=O)Nc4ccc(F)cc4)c(C)n3)CC2)cc1` [CBK285629], the viability at 28.5 h, 10 µM amounted to 101%.

Take `O=C(NC1(c2ccccc2)CCCC1)c1ccc(=O)n(CC(=O)N2CCCCC2)c1` [CBK285631]: the viability at 28.5 h, 10 µM stood at 90.5%.

On to `Cc1ccc(S(=O)(=O)NCc2ccc(-c3nn(C)cc3-c3ccncc3C)cc2)cc1` [CBK285632], for which the viability at 28.5 h, 10 µM is 89.2%.

With `Cc1cnccc1-c1cn(C)nc1-c1ccc(CNC(=O)c2cccc(N(C)C)c2)cc1` [CBK285633], the viability at 28.5 h, 10 µM came out at 86.5%.

Turning to `Cc1cnc2c(C(=O)N3CC(C(=O)N4CCN(c5ccccc5)CC4)C3)cnn2c1` [CBK285641], the viability at 28.5 h, 10 µM is 92.4%.

Regarding `CCC(=O)N1CCCC1c1nc(C)c2c(n1)N(Cc1ccccc1OC)CCC2` (centres unmarked) [CBK285642], the viability at 28.5 h, 10 µM worked out at 91.9%.

As to `Cc1nc(-c2ccc(CNS(=O)(=O)c3ccc(Cl)cc3)cc2)ccc1C(N)=O` [CBK285643], the viability at 28.5 h, 10 µM is 90.5%.

Regarding `Cc1ccc(-c2cc(C(=O)NCc3ccc(-c4ccc(C(N)=O)c(C)n4)cc3)no2)cc1` [CBK285644], the viability at 28.5 h, 10 µM amounted to 116%.

Take `COc1cc(CN2C[C@@H](c3ccccc3)[C@@H]3NC(=O)CCCC[C@H]32)cc(OC)c1` [CBK285646]: the viability at 28.5 h, 10 µM turned out to be 89.6%.

Take `Nc1ncc(-c2ccc(C(F)(F)F)cc2)c(C2CCCN(C(=O)CN3CCCC3)C2)n1` (centres unmarked) [CBK285649]: the viability at 28.5 h, 10 µM was 91.6%.

On to `COc1ccccc1-c1ccc(NC(=O)CCc2nc3ccccc3[nH]2)cc1` [CBK285651], for which the viability at 28.5 h, 10 µM was determined as 103%.

On to `Cc1ccc(C)c(C2CCCN2C(=O)c2ccc(=O)n(CC(=O)N(C)c3ccccc3)c2)c1` (centres unmarked) [CBK285654], for which the viability at 28.5 h, 10 µM amounted to 97.5%.

Consider `O=C(c1ccccc1F)N1C[C@H](c2ccsc2)[C@H]2CN(Cc3cccc(F)c3)CC[C@H]21` [CBK285660], for which the viability at 28.5 h, 10 µM worked out at 120%.

Turning to `O=C(c1ccccc1F)N1C[C@H](c2ccsc2)[C@H]2CN(Cc3ccsc3)CC[C@H]21` [CBK285661], the viability at 28.5 h, 10 µM amounted to 107%.

Regarding `CN(C(=O)Cn1cc(C(=O)NCC(C)(C)c2ccc(F)cc2)ccc1=O)c1ccccc1` [CBK285662], the viability at 28.5 h, 10 µM turned out to be 108%.

In the case of `Cc1nc(CC(NC(=O)C(c2ccccc2)c2ccccc2)c2ccc(F)cc2)cc(=O)[nH]1` (centres unmarked) [CBK285669], the viability at 28.5 h, 10 µM is 101%.

For `COc1ccc(-c2csc(CCNC(=O)Cc3c[nH]c(=O)[nH]c3=O)n2)cc1` [CBK285670], the viability at 28.5 h, 10 µM came out at 92.4%.

On to `COc1cccc(CNC(=O)c2cc3c(nc2N)CCN(Cc2cccc(C)c2OC)C3)c1` [CBK285682], for which the viability at 28.5 h, 10 µM was 98.6%.

Take `O=C(Nc1ccc(-c2ccc(F)cc2)cc1)c1ccc(N2C(=O)CCC2=O)cc1` [CBK285683]: the viability at 28.5 h, 10 µM worked out at 98%.

With `CNC(=O)C1(Cc2ccccc2-c2cccs2)CCN(C(=O)COc2ccccc2)CC1` [CBK285684], the viability at 28.5 h, 10 µM came to 118%.

Consider `CNC(=O)C1(Cc2ccccc2-c2cccs2)CCN(C(=O)c2ccccc2OC)CC1` [CBK285685], for which the viability at 28.5 h, 10 µM came to 107%.

Consider `CNC(=O)C1(Cc2ccccc2-c2cccs2)CCN(C(=O)Cc2cccc(C)c2)CC1` [CBK285686], for which the viability at 28.5 h, 10 µM amounted to 105%.

Consider `Cc1ccc2c(c1)C(=O)CC1(CCN(C(=O)Cc3c(C)[nH]c(=O)[nH]c3=O)CC1)O2` [CBK285688], for which the viability at 28.5 h, 10 µM turned out to be 91.6%.
